We go through two molecules from patent US20250281500A1, “FUSED AMINO PYRIMIDINE COMPOUNDS AND PRIDOPIDINE FOR TREATMENT OF HUNTINGTON’S DISEASE” (Ovid Therapeutics Inc., priority 2024, published 2025).

The test system of assay [1] is panel of 144 protein kinases. Kind of assay: SelectScreen panel of 144 protein kinases. The following applies: incl. PKC isoforms, OSR1, SPAK, WNK. In kind it is biochemical.
A further assay relates to mice. Kind of assay: KA induced ongoing SE, EEG, treatment with DZ or DZ/Compound A 2 h after KA. In kind it is in vivo. The following applies: given 2 h after KA. Here is the method: EEG recordings and analysis. WT C57Bl/6J adult male mice (12 weeks) were anesthetized with isofluorane and implanted with EEG/EMG electrodes and allowed to recover for 7 days prior to experimentation. […] 2 h following KA administration mice were injected with a saturating concentration of diazepam (DZ) 10 mg/kg (IP) and recordings were extended for a further 60 min. […] LabChart 8 software was used for data analysis. Epileptiform activity was identified by changes in the amplitude of electrographic activity characterized by consistent changes in the power of the Fast Fourier transform (FFT) of the EEG and abnormal activity characterized by periods of rhythmic spiking lasting longer than 30 s (Moore et al., 2017, supra; Silayeva et al., 2015, supra; Sivakumaran et al., J. Neurosci. 35, 8291-8296 (2015)).
To evaluate the potential of KCC2 activators to terminate ongoing SE, the KA model described above was employed. Mice were injected with KA (20 mg/Kg; IP). […] Spectral data were then subjected to FFT and the total EEG power between 1-100 Hz of the 2 h following KA treatment (pre-drug) and 30 min following their injection (post-drug) were compared (FIG. 6B). In mice treated with DZ alone variable effects were observed, from large increases to modest reductions in EEG power, but these effects were not significant (FIG. 6C; pre=1.1±0.2×10^−6, post=4.4±7.4×10^−7 μV^2, p=0.214, n=13-14 mice). […]

As for `C[C@@H]1CN(c2nc3c(c(Nc4ccc(C5CCCCC5)cc4)n2)COC3)CCO1` [Compound A, (R)-N-(4-cyclohexylphenyl)-2-(2-methylmorpholino)-5,7-dihydrofuro[3,4-d]pyrimidin-4-amine], the “activity of a panel of 144 protein kinases” value in assay [1] is “did not modify the activity”. The “mice insensitive to the effects of DZ on EEG power” value with mice is on record as “abolished”. On to `CN1C(=O)CN=C(c2ccccc2)c2cc(Cl)ccc21` [DZ, diazepam, reference compound], for which, in the assay on mice, the “mice insensitive to the effects of DZ on EEG power” value is 62%.
